For the test, the target named is T1, Estrogen receptor (Homo sapiens, UniProt P03372).
T1 sequence (P03372 whole entry): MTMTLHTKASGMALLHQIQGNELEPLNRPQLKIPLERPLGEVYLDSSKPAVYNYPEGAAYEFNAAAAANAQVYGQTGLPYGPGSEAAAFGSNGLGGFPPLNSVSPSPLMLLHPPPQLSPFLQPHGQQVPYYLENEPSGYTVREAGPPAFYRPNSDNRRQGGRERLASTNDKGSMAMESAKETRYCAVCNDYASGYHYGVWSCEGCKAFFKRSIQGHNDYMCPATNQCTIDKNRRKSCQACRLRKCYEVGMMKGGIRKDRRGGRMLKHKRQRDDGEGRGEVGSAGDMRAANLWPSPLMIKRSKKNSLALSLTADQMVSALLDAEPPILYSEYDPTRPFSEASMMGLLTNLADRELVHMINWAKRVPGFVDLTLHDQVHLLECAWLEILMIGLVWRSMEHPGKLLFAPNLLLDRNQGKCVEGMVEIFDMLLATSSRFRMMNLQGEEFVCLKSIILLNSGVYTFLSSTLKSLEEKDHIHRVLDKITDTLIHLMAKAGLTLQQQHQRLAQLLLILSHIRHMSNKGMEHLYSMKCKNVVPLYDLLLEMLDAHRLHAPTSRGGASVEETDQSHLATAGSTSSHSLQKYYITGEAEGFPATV
The experiment in a line: Inhibition of ERalpha (unknown origin) in MCF7 cells measured after 24 to 48 hrs by FRET assay. In kind it is cell-based.

Regarding `COc1onc(-c2ccc(O)cc2)c1-c1oc2ccccc2c(=O)c1O`, half-maximal inhibition (IC50) required 91.1 µM.

By IC50 is commonly meant the point on the concentration scale where inhibition reaches its midpoint.

(Values after ChEMBL document CHEMBL5096181, “Isoxazole derivatives as anticancer agent: A review on synthetic strategies, mechanism of action and SAR studies” (Eur J Med Chem, 2021).)
